Data published in patent US20130203718A1 (priority 2010, published 2013).

Experiments:
[1] = test system: PRB-mediated amphiregulin gene transcription; assay: Quantitative RT-PCR of endogenous gene transcription in MDA-MB-231 iPRAB cells; assay type: cell-based, human; settings: APRn 1 μM, 6 h, FIG. 10
Experimental: MDA-MB-231 iPRAB cells were cultured in 6-well plates in RPMI 1640 medium with L-glutamine without phenol red, enriched with 5% DCC serum containing inducer ligand RSL1 (500 nM) or Dox (1 μg/ml) for PRA or PRB expression during 24 h. […] Total RNA was then extracted using TRIZOL reagent (Invitrogen). One μg of total RNA was treated with DNase I Amplification Grade (Invitrogen) and then reverse transcribed using cDNA RT kit from Applied Biosystems (Courtaboeuf, France) and random primers. Following a ten-fold dilution, the cDNA samples were amplified in duplicate by real-time PCR in ABI 7300 apparatus (Applied Biosystems), using the Power SYBR Green PCR Master Mix (Applied Biosystems) in the presence of 300 nM of forward and reverse specific primers. A dissociation curve was also obtained at the end of the reaction to verify the specificity of the pair of primers. Standard curve for PCR calibration of each gene transcript tested was obtained with the corresponding amplicon subcloned in pGEMT-easy (Promega) and verified by sequencing analysis. The expression level of each gene transcript was normalized to 18S RNA level, and results were expressed as means of relative concentrations of six samples (attomole of specific gene cDNA/femtomole of 18S cDNA±SEM.)
The selected APRn (APR16, APR19, APR43, APR47, APR51, APR54) were verified for their agonist and antagonistic properties on endogenous gene transcription. A ligand activated PRB target gene, amphiregulin was selected for these studies (Georgiakaki, M. Mol Endocrinol 2006, 20, 2122) and quantitative RT-PCR analysis was performed in MDA-MB-231 iPRAB cells as described in Materials and Methods.

[2] = target: T1, hPRB and TIF-2 (Homo sapiens, UniProt P06401); assay: Mammalian two hybrid assay, recruitment of co-activator TIF-2 (TIF-2-Nter, TIF-2-NterRID) by hPRB; assay type: cell-based; settings: HEK293T; for recruitment of co-activator TIF-2 sequences by hPRB upon ligand binding: TIF-2-Nter and TIF-2-NterRID, FIGS. 15-17; for inhibition of progesterone induced TIF-2 recruitment by hPRB: two hybrid, FIG. 18
T1 construct: expressed in transfected cells; host or cells: HEK 293T
T1 sequence (P06401 1-933): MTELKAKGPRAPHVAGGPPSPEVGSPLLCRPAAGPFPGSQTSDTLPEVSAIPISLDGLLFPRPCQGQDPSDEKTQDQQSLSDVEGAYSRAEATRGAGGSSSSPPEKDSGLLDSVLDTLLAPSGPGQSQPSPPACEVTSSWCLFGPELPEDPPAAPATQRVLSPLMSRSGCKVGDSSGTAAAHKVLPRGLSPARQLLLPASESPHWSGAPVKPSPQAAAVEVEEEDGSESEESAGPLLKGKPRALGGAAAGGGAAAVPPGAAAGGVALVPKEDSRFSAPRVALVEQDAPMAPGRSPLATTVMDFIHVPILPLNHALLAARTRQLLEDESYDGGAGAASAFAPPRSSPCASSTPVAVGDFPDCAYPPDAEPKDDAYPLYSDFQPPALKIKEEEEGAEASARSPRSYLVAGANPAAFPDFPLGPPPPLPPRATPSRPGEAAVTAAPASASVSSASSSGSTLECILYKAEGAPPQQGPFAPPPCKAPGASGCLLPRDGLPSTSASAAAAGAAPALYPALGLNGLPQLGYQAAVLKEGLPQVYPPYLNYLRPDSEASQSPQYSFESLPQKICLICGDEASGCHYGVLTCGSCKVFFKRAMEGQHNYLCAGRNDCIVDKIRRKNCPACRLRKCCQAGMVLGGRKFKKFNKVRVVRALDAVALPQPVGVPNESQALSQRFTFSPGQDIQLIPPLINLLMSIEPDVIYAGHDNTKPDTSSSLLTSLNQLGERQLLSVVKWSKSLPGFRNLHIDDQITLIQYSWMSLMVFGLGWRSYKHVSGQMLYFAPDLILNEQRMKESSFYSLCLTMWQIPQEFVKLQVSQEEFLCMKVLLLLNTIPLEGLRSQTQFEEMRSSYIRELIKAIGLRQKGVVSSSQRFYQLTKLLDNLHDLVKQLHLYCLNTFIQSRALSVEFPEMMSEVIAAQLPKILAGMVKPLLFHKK
Experimental: (§1) Mammalian Two Hybrid Assays.
(§2) To investigate whether hPR was able to recruit transcriptional corepressors upon APRn binding, two hybrid assays have been performed in HEK 293T cells. Cell transfection were carried out according to the protocol used for the PR transactivation assays, with 1 μg of pGAL4-SMRT or pGAL4-NcoR, 2.5 μg of the PR expression vector pV16-PR and 5 μg of the reporter pG5-luc. The plasmid pGAL4-SMRT and pGAL4-NcoR, provided by P. Balaguer, encode the fusion protein between the GAL4 DNA-binding domain (GAL4DBD) and the receptor interacting domain (RID) of the corepressor […], respectively. The expression vector pV16PR encodes the VP16 activation domain of herpes simplex virus fused to the entire hPR and pG5-luc, provided by P. Fuller, encodes the luciferase gene driven by a GAL4-responsive promoter. […] Cell transfection were carried out according to the PR transactivation assays, by using 2 μg of pM-TIF2/Nter-RID or […], 2 μg of the expression vector pV16PR and 5 μg of the reporter pG5luc. The plasmids pM-TIF2/Nter-RID encodes the fusion proteins between the GAL4 DBD and the 1-867 TIF2 sequence corresponding to the Nter and RID domains. The plasmids pMTIF2-Nter encodes the fusion proteins between the GAL4 DBD and the 1-623 TIF2 sequence corresponding to the Nter domain. After 16 h incubation, the transfected cells were washed with PBS containing 2.5 mM EDTA, trypsinized and replated in 24-well plates. […] Cells were lysed and the luciferase and activities were quantified by using a Mithras reader microplates (Berthold).
Both agonist- and antagonist-bound PR regulate gene transcription with the assistance of transcriptional co-repressors (NCoR, SMRT) or co-activators (namely, TIF-2). To characterize the mechanism by which APRn inactivate hPRB, the capacity of hPRB to recruit transcriptional co-regulators upon APRn binding has been evaluated. With this aim, mammalian two-hybrid assays in HEK293T cells have been performed by using two series of fusion proteins: (i) the VP16 activation domain of herpes simplex virus fused to the entire hPRB and (ii) the GAL4 DNA-binding domain (DBD) fused to the receptor interacting domain (RID) of corepressors (NCoR and SMRT), the GAL4 DBD fused to the 1-867 sequence of the co-activator TIF2 (corresponding to the Nter and RID domains), the GAL4 DBD fused to the 1-623 sequence of TIF2 (corresponding to the Nter domain).
Further, the capacity of hPRB to bind the co-activator TIF-2 was examined. The two-hybrid assays were performed with the TIF-2 sequence encompassing its N-ter region alone (TIF-2-Nter) or the sequence including the N-ter and the RID regions (TIF-2-NterRID).

[3] = target: T2, hPRB and NCoR (Homo sapiens, UniProt P06401); assay: Mammalian two hybrid assay, recruitment of co-repressor NCoR by hPRB; assay type: cell-based; settings: HEK293T, FIGS. 12 and 14
T2 construct: expressed in transfected cells; host or cells: HEK 293T
T2 sequence (P06401 1-933): T1 sequence (P06401 1-933)
Experimental: as §1, §2
Both agonist- and antagonist-bound PR regulate gene transcription with the assistance of transcriptional co-repressors (NCoR, SMRT) or co-activators (namely, TIF-2). To characterize the mechanism by which APRn inactivate hPRB, the capacity of hPRB to recruit transcriptional co-regulators upon APRn binding has been evaluated. […]

Compound	agonistic effect on amphiregulin gene transcription [1]	recruitment of co-activator TIF-2 sequences by hPRB upon ligand binding [2]	inhibition of progesterone induced TIF-2 recruitment by hPRB [2]	recruitment of co-repressor NCoR by hPRB upon ligand binding [3]
CC(=O)[C@H]1CC[C@H]2[C@@H]3CC=C4C[C@@H](F)CC[C@]4(C)[C@H]3CC[C@]12C [APR-16, 3β-Fluoropregn-5-en-20-one]	nearly unable to exert agonistic effect	unable to recruit the two TIF-2 sequences	able to inhibit the progesterone induced TIF-2 recruitment	unable to recruit
C[C@]12CCC3C(CC=C4C[C@@H](F)CC[C@@H]43)C1CCC2=O (stereo partly drawn) [APR-47, 3β-Fluoro-19-nor-androst-5-en-17-one]	nearly unable to exert agonistic effect	unable to recruit the two TIF-2 sequences	able to inhibit the progesterone induced TIF-2 recruitment	unable to recruit
CC#C[C@]1(O)CCC2C3CC[C@H]4CCCC[C@@H]4C3CC[C@@]21C (stereo partly drawn) [APR-54, 17α-(1-Propynyl)-19-nor-5-androstan-17β-ol]	nearly unable to exert agonistic effect	unable to recruit the two TIF-2 sequences	able to inhibit the progesterone induced TIF-2 recruitment	unable to recruit
